The record followed here is PubChem BioAssay (NCI).

Each structure is given as a SMILES string. In brackets after ≈: the same amount, converted by molar mass.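 Values below derive from 48-hour exposures of cells grown in 96-well plates, with endpoints linearly interpolated between the two concentrations bracketing the appropriate inhibition level. Abbreviation: GI50, concentration required for 50% inhibition of growth. The concentration for full growth arrest is given as TGI.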 Where a SMILES comes first, the peptide text is derived from it.

Test systems include A549 NSCLC; CCRF-CEM leukemia; DU-145 prostate; HL-60(TB) leukemia; HOP-92 NSCLC; NCI-H522 lung; OVCAR-5 ovarian; RPMI-8226 leukemia; SK-MEL-2 melanoma; SK-OV-3 ovarian; SNB-75 CNS; T-47D breast; UACC-62 melanoma.
Common to all, as to test: DTP human tumour cell line panel, 48 h

Usually GI50 stands for the concentration giving 50% growth inhibition. What is called TGI is the concentration giving total growth inhibition. The low end stands for more potent growth arrest, the high end for less potent growth arrest. For `N=C(N)c1ccc(-c2ccc(-c3cc(Cl)cc(Cl)c3)s2)nc1`, the GI50 with A549 NSCLC is 2070 nM; with CCRF-CEM leukemia, 2390 nM; with DU-145 prostate, 1880 nM; in the assay on HL-60(TB) leukemia, 2120 nM; with HOP-92 NSCLC it was 3.43 µM; in the assay with NCI-H522 lung, 2160 nM. For the same compound, the GI50 in the assay on OVCAR-5 ovarian is 1680 nM; in the assay with RPMI-8226 leukemia, 2310 nM; with SK-MEL-2 melanoma, 2700 nM; in the assay with SK-OV-3 ovarian it was 2600 nM; in the assay with SNB-75 CNS it was 1470 nM; in the assay on T-47D breast, 2120 nM. The TGI in the assay with A549 NSCLC is 4.56 µM; in the assay on CCRF-CEM leukemia, 5.86 µM; with DU-145 prostate, 3.33 µM; in the assay with HL-60(TB) leukemia it was 4.95 µM; in the assay with HOP-92 NSCLC it was 19.4 µM; in the assay on NCI-H522 lung, 4.73 µM. The TGI with OVCAR-5 ovarian turned out to be 3.05 µM; with RPMI-8226 leukemia, 5.26 µM; in the assay with SK-MEL-2 melanoma it was 7.02 µM; in the assay with SK-OV-3 ovarian, 8.15 µM; in the assay on SNB-75 CNS it was 3.03 µM; with T-47D breast, 4.99 µM.

As to `CC(=O)NC(C(=O)N1CCCC1C(=O)O)C(C)C` (stereo not drawn) (Ac-Val-Pro-OH; configuration not given here), the GI50 was 0.032 µg/mL with SNB-75 CNS and 22.4 µg/mL (≈ 87.5 µM) in the assay with UACC-62 melanoma. In addition, the TGI stood at 66.7 µg/mL with SNB-75 CNS and 72.4 µg/mL (≈ 283 µM) in the assay on UACC-62 melanoma.
